In one data set the target is T1, human IL-23R (Homo sapiens, UniProt Q5VWK5).
T1 construct: Nanoluc luciferase (Nluc); secretion signal encoded by the plasmid (not specified); expressed in transfected cells; crude membranes used in the assay
T1 sequence (Q5VWK5 22-629): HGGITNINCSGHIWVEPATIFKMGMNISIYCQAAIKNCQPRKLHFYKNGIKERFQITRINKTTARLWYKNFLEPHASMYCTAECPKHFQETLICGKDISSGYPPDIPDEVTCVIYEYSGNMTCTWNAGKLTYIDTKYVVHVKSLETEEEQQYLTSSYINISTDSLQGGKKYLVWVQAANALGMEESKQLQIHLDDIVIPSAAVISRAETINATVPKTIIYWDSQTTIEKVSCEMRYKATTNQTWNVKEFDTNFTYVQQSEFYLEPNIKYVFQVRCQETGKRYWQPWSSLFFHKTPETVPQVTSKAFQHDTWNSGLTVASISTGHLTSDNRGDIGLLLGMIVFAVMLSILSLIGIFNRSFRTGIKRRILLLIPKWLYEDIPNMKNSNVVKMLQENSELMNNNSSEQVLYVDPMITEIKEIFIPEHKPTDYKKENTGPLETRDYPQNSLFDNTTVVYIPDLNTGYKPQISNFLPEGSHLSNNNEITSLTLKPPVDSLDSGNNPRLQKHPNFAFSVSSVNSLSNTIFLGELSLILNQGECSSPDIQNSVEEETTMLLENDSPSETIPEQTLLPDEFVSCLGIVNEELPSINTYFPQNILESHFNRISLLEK
As to the kind of experiment: Binding assay: displacement of fluorophore (TAMRA)-labelled reference compound from human IL-23R (BRET, Nluc-IL23R fusion protein membranes). Conditions: for Emax: read-out: % displacement (hIL-23R binding).

The subject of data set [1] is IL-23 mediated STAT3 signalling (DB cells). As to the kind of experiment: Functional inhibition of IL-23 mediated STAT3 signalling (phospho-STAT3 Tyr705) in DB cells. Conditions: for IC50: Table 3-2, EC80 of hIL-23, read-out: hIL-23 (pSTAT3) antagonist IC50; for hIL-23 (pSTAT3) antagonist % inhibition: Table 3-2, maximal inhibitory response, EC80 of hIL-23. In kind it is cell-based, human. A digest of the protocol: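 Phospho-STAT3 in lysed DB cells quantified by MSD kit after 90 min exposure to EC80 human IL-23, following 15 min compound pretreatment (37° C, 5% CO2). IC50 and maximal inhibition derived from curves normalized between IL-23-only and buffer-only controls.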

A short description of data set [2]: Peptide stability in simulated intestinal fluid (SIF). In kind it is in vitro ADME. The settings on record: pig, simulated intestinal fluid, SIF, pH 6.8, pancreatin, 37° C., 10 μM; for remaining at 4 h, 10 µM: read-out: SIF (% remaining 4 h). The procedure, abridged:
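Peptide at 10 μM final in USP-type SIF (10 g/L porcine pancreatin, phosphate buffer pH 6.8), shaken at 37 °C. Samples at 0, 1 and 4 h quenched in acetonitrile/0.1% formic acid and analysed by LC-HRMS. Percent remaining calculated from absolute peak areas relative to time zero.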

Data set [3] in a line: Peptide stability in simulated gastric fluid (SGF). The settings on record: pig, pH 1.2, pepsin, 37° C. The data set is classed as in vitro ADME. A digest of the protocol: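 Peptide (10 μM final) incubated at 37 °C in USP SGF, pH 1.2 with porcine pepsin 3.2 g/L; aliquots at 0, 1 and 4 h quenched in acidified acetonitrile.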
Another data set relates to IL-23R. The settings on record: see Examples of WO2023/099669; cited from earlier work.

*1 amine or outer side, *2 acyl side, *3 side chain or, on linkers, in order; H or OH if unused. Where a SMILES comes first, the peptide text is derived from it. Bridges are numbered along the chain shown (N, C = ends). [ ]: non-standard residue; d: D form. 2Nal = N[C@@H](Cc1ccc2ccccc2c1)C(=O)O; AEF = NCCOc1ccc(C[C@H](N)C(=O)O)cc1; X1 = O=C(Cc1ccc(CN[*:1])cc1)[*:2]; 3Pal = N[C@@H](Cc1cccnc1)C(=O)O; αMeL = CC(C)C[C@](C)(N)C(=O)O; Dab = NCC[C@H](N)C(=O)O

For orientation: IC50 means the point on the concentration scale where inhibition reaches its midpoint.

As to `CNC(=O)[C@H](Cc1cccnc1)NC(=O)[C@H](CO)NC(=O)[C@@H]1CCC(=O)NCc2ccc(cc2)CC(=O)N[C@@H](CO)C(=O)N[C@H]2CCC(=O)NCC[C@H](NC(=O)[C@H](CCC(N)=O)NC(=O)[C@H](Cc3c[nH]c4ccccc34)NC2=O)C(=O)N[C@@H](Cc2ccc(OCCN)cc2)C(=O)N[C@@H](Cc2ccc3ccccc3c2)C(=O)N[C@@](C)(CC(C)C)C(=O)N1` [Compound 31, [4-Aminomethyl-phenylacetyl](1c)*SE(2c)WQ[Dab](2c)[Y(2-aminoethoxy)][2-Nal][2-Me-Leu]E(1c)S[3-(3-Pyridyl)-Ala]-[NHMe]] ([X1]SEWQ[Dab][AEF][2Nal][αMeL]ES[3Pal]-NHMe; lactam 3-6, N-10), the Emax on human IL-23R is 97%. For the same compound, in data set [1], the IC50 worked out at 0.06 nM and the “hIL-23 (pSTAT3) antagonist % inhibition” value was 101%. Moreover, the fraction remaining at 1 h, 10 µM in data set [2] is 77%. For the same compound, in data set [3], the share remaining at 1 h, 10 µM is 101% and the share remaining at 4 h, 10 µM is 99%.
`CNC(=O)[C@H](Cc1cccnc1)NC(=O)[C@H](CCO)NC(=O)[C@@H]1CCC(=O)NCc2ccc(cc2)CC(=O)N[C@@H](CO)C(=O)N[C@H]2CCC(=O)NCC[C@H](NC(=O)[C@H](CCC(N)=O)NC(=O)[C@H](Cc3c[nH]c4ccccc34)NC2=O)C(=O)N[C@@H](Cc2ccc(OCCN)cc2)C(=O)N[C@@H](Cc2ccc3ccccc3c2)C(=O)N[C@@](C)(CC(C)C)C(=O)N1` [Compound 36, [4-Aminomethyl-phenylacetyl](1c)*SE(2c)WQ[Dab](2c)[Y(2-aminoethoxy)][2-Nal][2-Me-Leu]E(1c)[hSer][3-(3-Pyridyl)-Ala]-[NHMe]]: on human IL-23R, the Emax is 94%. Further, in data set [1], the concentration for half-maximal inhibition (IC50) was 0.034 nM and the “hIL-23 (pSTAT3) antagonist % inhibition” value was 103%. In addition, the fraction remaining at 1 h, 10 µM in data set [2] was 99%. Also, the amount remaining at 4 h, 10 µM in data set [3] is 103%.
For the compound `CNC(=O)[C@H](Cc1cccnc1)NC(=O)[C@@H](CO)NC(=O)[C@@H]1CCC(=O)NCc2ccc(cc2)CC(=O)N[C@@H](CO)C(=O)N[C@H]2CCC(=O)NCC[C@H](NC(=O)[C@H](CCC(N)=O)NC(=O)[C@H](Cc3c[nH]c4ccccc34)NC2=O)C(=O)N[C@@H](Cc2ccc(OCCN)cc2)C(=O)N[C@@H](Cc2ccc3ccccc3c2)C(=O)N[C@@](C)(CC(C)C)C(=O)N1` [Compound 38, [4-Aminomethyl-phenylacetyl](1c)*SE(2c)WQ[Dab](2c)[Y(2-aminoethoxy)][2-Nal][2-Me-Leu]E(1c)[{d}S][3-(3-Pyridyl)-Ala]-[NHMe]], the Emax at human IL-23R turned out to be 102%. Besides, in data set [1], the IC50 came out at 1 nM and the “hIL-23 (pSTAT3) antagonist % inhibition” value is reported as 100%. The amount remaining at 1 h, 10 µM in data set [2] is 82%. For the same compound, in data set [3], the amount remaining at 1 h, 10 µM was 100%.
`CNC(=O)[C@H](Cc1cccnc1)NC(=O)[C@](C)(CO)NC(=O)[C@@H]1CCC(=O)NCc2ccc(cc2)CC(=O)N[C@@H](CO)C(=O)N[C@H]2CCC(=O)NCC[C@H](NC(=O)[C@H](CCC(N)=O)NC(=O)[C@H](Cc3c[nH]c4ccccc34)NC2=O)C(=O)N[C@@H](Cc2ccc(OCCN)cc2)C(=O)N[C@@H](Cc2ccc3ccccc3c2)C(=O)N[C@@](C)(CC(C)C)C(=O)N1` [Compound 39, [4-Aminomethyl-phenylacetyl](1c)*SE(2c)WQ[Dab](2c)[Y(2-aminoethoxy)][2-Nal][2-Me-Leu]E(1c)[2-Me-Ser][3-(3-Pyridyl)-Ala]-[NHMe]]: the figures for the concentration for half-maximal inhibition (IC50) (on human IL-23R; in data set [1]) were 0.024 nM and 0.51 nM, respectively. In data set [1], the “hIL-23 (pSTAT3) antagonist % inhibition” value was determined as 101%. For the same compound, the amount remaining at 4 h, 10 µM was 85% in data set [2] and 96% in data set [3].
Compound `CNC(=O)[C@H](Cc1cccnc1)NC(=O)[C@H](CCN)NC(=O)[C@@H]1CCC(=O)NCc2ccc(cc2)CC(=O)N[C@@H](C)C(=O)N[C@H]2CCC(=O)NCC[C@H](NC(=O)[C@H](CCC(N)=O)NC(=O)[C@H](Cc3c[nH]c4ccccc34)NC2=O)C(=O)N[C@@H](Cc2c[nH]c3c(F)cccc23)C(=O)N[C@@H](Cc2ccc3ccccc3c2)C(=O)NC(C)(C)C(=O)N1` [Compound 47, [4-Aminomethyl-phenylacetyl](1c)*AE(2c)WQ[Dab](2c)[7-F-Trp][2-Nal][Aib]E(1c)[Dab][3-(3-Pyridyl)-Ala]-[NHMe]] gave a half-maximal inhibitory concentration (IC50) at human IL-23R of 0.069 nM. For the same compound, in data set [1], the half-inhibitory concentration (IC50) is 0.33 nM and the “hIL-23 (pSTAT3) antagonist % inhibition” value was 98%. In data set [2], the amount remaining at 1 h, 10 µM was 97% and the share remaining at 4 h, 10 µM is 92%. In data set [3], the fraction remaining at 1 h, 10 µM was 103% and the amount remaining at 4 h, 10 µM is 85%.
On to D(1c)*SC(2a)WQC(2a)WWLR(1c)* [Ref 6], for which the “inhibitory activity (in words), WO2023/099669” value (“inhibitory activity (in words)” below) with IL-23R is “inactive”.
For the compound “H-DC(1a)SE(2c)WQK(2c)WWLC(1a)R-[NH2] [Ref 5]”, the “inhibitory activity (in words)” value with IL-23R is “inactive”.
For the compound “[Ac]-DK(1c)SC(2a)WQC(2a)WWLE(1c)R-[NH2] [Ref 7]”, in the data set with IL-23R, the “inhibitory activity (in words)” value is “inactive”.

Values taken from US20260327264A1, “PEPTIDE INHIBITORS OF INTERLEUKIN-23 RECEPTOR” (Zealand Pharma A/S, priority 2023, published 2026).
